Results reported in patent publication US12145947B2, “Pyrimidine based modulators and uses thereof” (Quanta Therapeutics, Inc., priority 2022, dated 2024).

Assays:
w.t.KRAS/RAF1 = molecular target: T1, w.t.KRAS/RAF1 (Homo sapiens, UniProt P01116); test: Protein-protein interaction (PPI) HTRF assay w.t.KRAS/RAF1; assay type: binding; conditions: Table 3; wtKRAS/RAF1
T1 construct: His6-MBP (N, cleaved yes); made in house; host or cells: E. coli
Description: (§1) Biotinylated KRAS wt and KRAS G12DNV proteins were expressed and purified in conditions similar to those previously reported (Tran, et al., 2021) (Zhang, et al., 2020). Briefly, KRAS (1-169) proteins were expressed in E. coli at 18° C. with an upstream TEV cleavage site (ENLFYQS (SEQ ID NO: 6)) followed an Avi tag sequence ([…] (SEQ ID NO: 7)). KRAS expression constructs contained both a His6 (SEQ ID NO: 8) and maltose-binding protein (MBP) tags at the N-terminus for Ni-NTA column purification prior to overnight TEV cleavage and MBP column purification. The avi-tagged NRAS expression construct contained both a His6 tag (SEQ ID NO: 8) and SUMO cleavage sige at the N-terminus for Ni-NTA column purification followed by His-ULPi digestion overnight. […]
(§2) When RAS proteins are in the active GTP-bound conformation, they bind the effector protein RAF1 at the N-terminus Ras-binding domain (RBD, residues 52-131) (Tran, et al., 2021). Homogenous time resolved fluorescence (HTRF) was used to monitor the interaction between wt or mutant KRAS and RAF1 or wt NRAS and RAFT. […] The intensity of the fluorescence signal emitted is proportional to binding between the two proteins. […] The fluorescence signal emitted was monitored at 665 nm and 615 nm using an Envision multimode plate reader. […]

w.t. NRAS/RAF1 = molecular target: T2, w.t. NRAS/RAF1 (Homo sapiens, UniProt P01111); test: Protein-protein interaction (PPI) HTRF assay NRAS/RAF1; assay type: binding; conditions: Table 3; wtNRAS/RAF1
T2 construct: His6-SUMO (N, cleaved yes); made in house; host or cells: E. coli (printed for KRAS and RAF1)
T2 sequence (P01111 with tags, fused parts or gaps): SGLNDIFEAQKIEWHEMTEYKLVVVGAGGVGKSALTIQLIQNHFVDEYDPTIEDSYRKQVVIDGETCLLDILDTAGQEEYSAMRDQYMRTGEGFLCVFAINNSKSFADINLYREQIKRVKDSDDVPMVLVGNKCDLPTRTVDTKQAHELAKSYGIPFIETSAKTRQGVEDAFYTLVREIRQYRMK
Description: as §1, §2

T1 sequence (P01116 with tags, fused parts or gaps isoform P01116-2): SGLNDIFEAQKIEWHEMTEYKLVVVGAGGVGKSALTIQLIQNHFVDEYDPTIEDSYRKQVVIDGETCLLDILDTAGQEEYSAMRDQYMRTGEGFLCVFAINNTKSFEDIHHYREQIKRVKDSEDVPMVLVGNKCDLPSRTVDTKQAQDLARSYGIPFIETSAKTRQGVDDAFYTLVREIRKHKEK

CN(C)C(=O)c1nn2c(c1Cl)CN(c1nc(OC[C@@]34CCCN3C[C@H](F)C4)nc(N3CC4(CCc5sc(N)c(C#N)c54)C3)c1C#N)CCC2 [Compound 2, 5-[6-(2-amino-3-cyano-spiro[5,6-dihydrocyclopenta[b]thiophene-4,3′-azetidine]-1′-yl)-5-cyano-2-[[(2R,8S)-2-fluoro-1,2,3,5,6,7-hexahydropyrrolizin-8-yl]methoxy]pyrimidin-4-yl]-3-chloro-N,N-dimethyl-4,6,7,8-tetrahydropyrazolo[1,5-a][1,4]diazepine-2-carboxamide]
IC50 (w.t.KRAS/RAF1): 1 to 10 µM | IC50 (w.t. NRAS/RAF1): > 100 µM

CN(C)C(=O)c1nn2c(c1Cl)CN(c1nc(OC[C@@]34CCCN3C[C@H](F)C4)nc(N3CC4(CCCc5sc(N)c(C#N)c54)C3)c1C#N)CCC2 [Compound 3, 5-[6-(2-amino-3-cyano-spiro[6,7-dihydro-5H-benzothiophene-4,3′-azetidine]-1′-yl)-5-cyano-2-[[(2R,8S)-2-fluoro-1,2,3,5,6,7-hexahydropyrrolizin-8-yl]methoxy]pyrimidin-4-yl]-3-chloro-N,N-dimethyl-4,6,7,8-tetrahydropyrazolo[1,5-a][1,4]diazepine-2-carboxamide]
IC50 (w.t. NRAS/RAF1): > 100 µM
